Literature values, collected in patent publication US20190203187A1, “CHEMILUMINESCENT WETNESS INDICATOR FOR ABSORBENT PRODUCTS” (International Paper Company, priority 2014, published 2019).

How the values were obtained:
[1] = target: T1, Renilla Luciferase (Renilla reniformis, UniProt P27652)
T1 sequence (P27652 1-311): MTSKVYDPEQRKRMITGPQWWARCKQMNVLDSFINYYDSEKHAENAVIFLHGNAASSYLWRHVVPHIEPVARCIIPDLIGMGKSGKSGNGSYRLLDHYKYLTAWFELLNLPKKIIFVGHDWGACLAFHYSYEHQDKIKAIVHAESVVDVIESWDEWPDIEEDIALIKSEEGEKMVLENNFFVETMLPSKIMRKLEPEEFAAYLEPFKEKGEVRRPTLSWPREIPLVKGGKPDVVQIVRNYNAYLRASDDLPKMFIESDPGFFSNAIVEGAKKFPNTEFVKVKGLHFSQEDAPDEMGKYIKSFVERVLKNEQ

[2] = test system: Gaussia luciferase (Gluc)
[3] = target: T2, apoaequorin (Aequorea victoria, UniProt P07164); details: for luminescence intensity relative to coelenterazine (native form): coelenterazine-apoaequorin (aequorin) complex
T2 sequence (P07164 8-196): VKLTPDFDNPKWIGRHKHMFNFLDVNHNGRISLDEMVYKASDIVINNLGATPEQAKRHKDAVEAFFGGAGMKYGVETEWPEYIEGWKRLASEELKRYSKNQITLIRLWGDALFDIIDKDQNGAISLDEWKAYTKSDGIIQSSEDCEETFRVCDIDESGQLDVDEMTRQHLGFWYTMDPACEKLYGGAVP

For O=c1c(Cc2ccccc2)nc2c(Cc3ccccc3)[nH]c(-c3ccccc3)cn1-2 [coelenterazine 400a, coelenterazine 400a (2-2′(4-dehydroxy)) coelenterazine], the “quality as substrate for Renilla luciferase” value [1] is listed as “good substrate”, the emission maximum ([1]; substrate for Renilla luciferase, BRET) is listed as 400 nm and the “oxidation with Gaussia luciferase” value [2] is listed as “does not oxidize well”.
For Oc1ccc(Cc2nc3c(CC4CCCC4)nc(-c4ccc(O)cc4)cn3c2O)cc1 [coelenterazine cp], the “luminescence intensity relative to coelenterazine (native form)” value [3] is given as 15 times.
In the case of Oc1ccc(Cc2nc3c(Cc4ccccc4)nc4c(n3c2O)CCc2cc(O)ccc2-4)cc1 [coelenterazine e], the “quality as substrate for apoaequorin” value [3] is listed as “poor substrates”.
In the case of Oc1ccc(-c2cn3c(O)c(Cc4ccc(F)cc4)nc3c(CC3CCCC3)n2)cc1 [coelenterazine fcp], the “quality as substrate for Renilla luciferase” value [1] is listed as “poor substrate” and the “luminescence intensity relative to coelenterazine (native form)” value [3] is listed as 135 times.
For coelenterazine f, the “luminescence intensity relative to coelenterazine (native form)” value [3] is given as 20 times and the “emission maximum longer than that of the native form” value ([3]; coelenterazine-apoaequorin complex) is given as “about 8 nm”.
